Data: US12233081B2, “Hygromycin a compounds and methods of treating spirochete diseases” (priority 2018, dated 2025)
Where two headings read alike, the source gives them in different places.

Key:
gut microbiome [1] = experiment: gut microbiome 16S rRNA sequencing of stool of infected, treated mice; settings: for Enterococcaceae change in percent relative abundance: 100 mg/kg
gut microbiome [2] = settings: mouse, in vivo, 100 mg/kg
[3] = IP 100 mg/kg every 12 hours for 5 days
[4] = oral 100 mg/kg every 12 hours for 5 days

## CC1(C)S[C@@H]2[C@H](NC(=O)[C@H](N)c3ccc(O)cc3)C(=O)N2[C@H]1C(=O)O [Amox, amoxicillin]
Gut microbiome [1]; [3]
  Brucellaceae change in percent relative abundance: 0.000%
  Francisellaceae change in percent relative abundance: 0.001%
Gut microbiome [1]; [4]
  Aerococcaceae change in percent relative abundance: 0.000%
  Anaerolineaceae change in percent relative abundance: 0.000%
  Anaeroplasmataceae change in percent relative abundance: −0.048%
  Anaplasmataceae change in percent relative abundance: 0.000%
  Aspergillaceae change in percent relative abundance: 0.000%
  Asteraceae change in percent relative abundance: 0.003%
  Bacillaceae change in percent relative abundance: 0.002%
  Bacillales change in percent relative abundance: −0.100%
  Bacteroidaceae change in percent relative abundance: −8.426%
  Bifidobacteriaceae change in percent relative abundance: −0.124%
  Brucellaceae change in percent relative abundance: 0.001%
  Camobacteriaceae change in percent relative abundance: −0.002%
  Chitinophagaceae change in percent relative abundance: 0.000%
  Christensenellaceae change in percent relative abundance: 0.000%
  Clostridiaceae change in percent relative abundance: −6.891%
  Clostridiales change in percent relative abundance: −0.099%
  Clostridiales family xi. incertae sedis change in percent relative abundance: −0.027%
  Clostridiales family xiii. incertae sedis change in percent relative abundance: −0.011%
  Coriobacteriaceae change in percent relative abundance: −0.019%
  Corynebacteriaceae change in percent relative abundance: 0.000%
  Cytophagaceae change in percent relative abundance: −0.001%
  Deferribacteraceae change in percent relative abundance: −0.085%
  Defluviitaleaceae change in percent relative abundance: −0.001%
  Desulfobacteraceae change in percent relative abundance: 0.000%
  Enterobacteriaceae change in percent relative abundance: −1.496%
  Erysipelotrichaceae change in percent relative abundance: −2.932%
  Eubacteriaceae change in percent relative abundance: 4.510%
  Fabaceae change in percent relative abundance: 0.001%
  Flavobacteriaceae change in percent relative abundance: 0.000%
  Francisellaceae change in percent relative abundance: −0.001%
  Fusobacteriaceae change in percent relative abundance: 0.000%
  Gammaproteobacteria change in percent relative abundance: −0.027%
  Gloeobacteraceae change in percent relative abundance: −0.013%
  Gracilibacteraceae change in percent relative abundance: −0.105%
  Halomonadaceae change in percent relative abundance: 0.001%
  Hylidae change in percent relative abundance: 0.002%
  Kopriimonadaceae change in percent relative abundance: 0.000%
  Lachnospiraceae change in percent relative abundance: −5.482%
  Lactobacillaceae change in percent relative abundance: −15.023%
  Leuconostocaceae change in percent relative abundance: 0.002%
  Methylobacteriaceae change in percent relative abundance: 0.000%
  Microbacteriaceae change in percent relative abundance: 0.000%
  Mucoraceae change in percent relative abundance: 0.002%
  Nostocaceae change in percent relative abundance: 0.001%
  Onagraceae change in percent relative abundance: 0.000%
  Oscillatoriales change in percent relative abundance: 0.069%
  Oscillospiraceae change in percent relative abundance: −0.005%
  Paenibacillaceae change in percent relative abundance: −0.001%
  Pasteurellaceae change in percent relative abundance: 0.000%
  Pelobacteraceae change in percent relative abundance: 0.000%
  Peptococcaceae change in percent relative abundance: −0.948%
  Peptoniphilaceae change in percent relative abundance: 0.000%
  Peptostreptococcaceae change in percent relative abundance: −0.187%
  Physalacriaceae change in percent relative abundance: 0.000%
  Poaceae change in percent relative abundance: 0.107%
  Polyangiaceae change in percent relative abundance: 0.000%
  Porphyromonadaceae change in percent relative abundance: −19.192%
  Prevotellaceae change in percent relative abundance: −0.240%
  Pseudomonadaceae change in percent relative abundance: 0.000%
  Rhizobiaceae change in percent relative abundance: 0.001%
  Rhodobacteraceae change in percent relative abundance: 0.000%
  Rikenellaceae change in percent relative abundance: −6.166%
  Ruminococcaceae change in percent relative abundance: −1.440%
  Sphingomonadaceae change in percent relative abundance: 0.000%
  Spirochaetaceae change in percent relative abundance: −0.056%
  Spiroplasmataceae change in percent relative abundance: −0.004%
  Staphylococcaceae change in percent relative abundance: 0.000%
  Streptococcaceae change in percent relative abundance: −2.376%
  Thermoanaerobacteraceae change in percent relative abundance: −0.028%
  Veillonellaceae change in percent relative abundance: 0.001%
  Verrucomicrobiaceae change in percent relative abundance: −0.009%
  Xanthomonadaceae change in percent relative abundance: 0.002%
  all other commensal taxa such as Bacteroidaceae and Lactobacillaceae: depleted
  mice with Enterococcaceae blooms: 4/5
  Enterococcaceae change in percent relative abundance: 75.807%
Gut microbiome [1]; oral 100 mg/kg every 12 hours for 5 days, listed as amoxicillin
  Enterococcaceae change in percent relative abundance: 75.8%
Gut microbiome [2]; C3H, ip, 5 days
  Camobacteriaceae change in percent relative abundance: 0.000%
  Chitinophagaceae change in percent relative abundance: 0.000%
  Christensenellaceae change in percent relative abundance: 0.000%
  Clostridiaceae change in percent relative abundance: 0.211%
  Clostridiales change in percent relative abundance: −0.037%
  Clostridiales family xi. incertae sedis change in percent relative abundance: −0.010%
  Clostridiales family xiii. incertae sedis change in percent relative abundance: −0.007%
  Coriobacteriaceae change in percent relative abundance: 0.099%
Gut microbiome [2]; ip
  Acholeplasmataceae change in percent relative abundance: 0.005%
  Aerococcaceae change in percent relative abundance: 0.000%
  Anaerolineaceae change in percent relative abundance: 0.000%
  Anaeroplasmataceae change in percent relative abundance: −0.132%
  Anaplasmataceae change in percent relative abundance: 0.000%
  Aspergillaceae change in percent relative abundance: 0.000%
  Asteraceae change in percent relative abundance: 0.000%
  Bacillaceae change in percent relative abundance: −0.011%
  Bacillales change in percent relative abundance: −0.031%
  Bacteroidaceae change in percent relative abundance: 0.684%
  Bifidobacteriaceae change in percent relative abundance: 0.000%
  Candidatus saccharibacteria change in percent relative abundance: −0.018%
  Corynebacteriaceae change in percent relative abundance: 0.000%
  Cytophagaceae change in percent relative abundance: 0.001%
  Deferribacteraceae change in percent relative abundance: 0.080%
  Defluviitaleaceae change in percent relative abundance: 0.000%
  Desulfobacteraceae change in percent relative abundance: 0.000%
  Enterobacteriaceae change in percent relative abundance: −0.243%
  Enterococcaceae change in percent relative abundance: 0.052%
  Erysipelotrichaceae change in percent relative abundance: −0.193%
  Eubacteriaceae change in percent relative abundance: −1.475%
  Fabaceae change in percent relative abundance: 0.000%
  Flavobacteriaceae change in percent relative abundance: 0.000%
  Fusobacteriaceae change in percent relative abundance: 0.000%
  Gammaproteobacteria change in percent relative abundance: 0.003%
  Gloeobacteraceae change in percent relative abundance: 0.055%
  Gracilibacteraceae change in percent relative abundance: −0.026%
  Halomonadaceae change in percent relative abundance: 0.000%
  Hylidae change in percent relative abundance: 0.000%
  Kopriimonadaceae change in percent relative abundance: 0.000%
  Lachnospiraceae change in percent relative abundance: −1.425%
  Lactobacillaceae change in percent relative abundance: 1.726%
  Leuconostocaceae change in percent relative abundance: 0.000%
  Methylobacteriaceae change in percent relative abundance: 0.000%
  Microbacteriaceae change in percent relative abundance: 0.000%
  Mucoraceae change in percent relative abundance: 0.000%
  Nostocaceae change in percent relative abundance: 0.000%
  Onagraceae change in percent relative abundance: 0.000%
  Oscillatoriales change in percent relative abundance: 0.000%
  Oscillospiraceae change in percent relative abundance: 0.001%
  Paenibacillaceae change in percent relative abundance: −0.001%
  Pasteurellaceae change in percent relative abundance: 0.000%
  Pelobacteraceae change in percent relative abundance: 0.000%
  Peptococcaceae change in percent relative abundance: −0.325%
  Peptoniphilaceae change in percent relative abundance: 0.000%
  Peptostreptococcaceae change in percent relative abundance: −0.131%
  Physalacriaceae change in percent relative abundance: 0.000%
  Poaceae change in percent relative abundance: 0.024%
  Polyangiaceae change in percent relative abundance: 0.000%
  Porphyromonadaceae change in percent relative abundance: 10.471%
  Prevotellaceae change in percent relative abundance: 0.080%
  Pseudomonadaceae change in percent relative abundance: 0.000%
  Rhizobiaceae change in percent relative abundance: 0.000%
  Rhodobacteraceae change in percent relative abundance: 0.000%
  Rikenellaceae change in percent relative abundance: −3.443%
  Ruminococcaceae change in percent relative abundance: −0.093%
  Sphingomonadaceae change in percent relative abundance: 0.000%
  Spirochaetaceae change in percent relative abundance: −0.032%
  Spiroplasmataceae change in percent relative abundance: −0.059%
  Staphylococcaceae change in percent relative abundance: −0.001%
  Streptococcaceae change in percent relative abundance: −7.086%
  Thermoanaerobacteraceae change in percent relative abundance: −0.008%
  Veillonellaceae change in percent relative abundance: 0.000%
  Verrucomicrobiaceae change in percent relative abundance: 1.296%
  Xanthomonadaceae change in percent relative abundance: 0.001%
Gut microbiome [2]; po
  Acholeplasmataceae change in percent relative abundance: 0.095%
  Candidatus saccharibacteria change in percent relative abundance: −0.022%
